Data set [1] addresses L-lactate dehydrogenase A chain (Homo sapiens, UniProt P00338). The data set can be described thus: Inhibition of human LDH-A incubated for 10 mins in presence of […] by fluorescence based reader assay.
Data set [2] has as its target L-lactate dehydrogenase B chain (Homo sapiens, UniProt P07195). The data set can be described thus: Inhibition of human LDH-B incubated for 10 mins in presence of […] by fluorescence based reader assay.
Data set [3] in a line: Oral bioavailability in CD1 mouse at 5 mg/kg. Format: ADME, organism-based. The note with it: in vivo.
Data set [4] concerns MIA PaCa-2. The data set can be described thus: Antiproliferative activity against human MIA PaCa-2 cells incubated for 48 hrs by Hoechst 33342 and SYTOX green staining based confocal imaging analysis. The data set is classed as functional, cell-based. The note with it: MIA PaCa-2, 48 h.
Data set [5] in a line: Cytotoxicity against HPNEs incubated for 48 hrs by Hoechst 33342 and SYTOX green staining based confocal imaging analysis. To be noted: human, HPNE cells. The data set is classed as toxicity, cell-based.
Data set [6] has as its system PANC-1. The data set can be described thus: Antiproliferative activity against human PANC-1 cells incubated for 48 hrs by Hoechst 33342 and SYTOX green staining based confocal imaging analysis. The data set is classed as functional, cell-based. The note with it: PANC-1, 48 h.
Data set [7] in a line: Antiproliferative activity against mouse FC-1199 cells incubated for 48 hrs by Hoechst 33342 and SYTOX green staining based confocal imaging analysis. The data set is classed as functional, cell-based. To be noted: FC-1199, 48 h.
A short description of data set [8]: Tmax in CD1 mouse at 5 mg/kg, po. The data set is classed as ADME, organism-based. The note with it: in vivo.
A short description of data set [9]: Cmax in CD1 mouse at 1 mg/kg, iv. Format: ADME, organism-based. To be noted: in vivo.
The nature of data set [10]: Cmax in CD1 mouse at 5 mg/kg, po. To be noted: in vivo. The data set is classed as ADME, organism-based.
A short description of data set [11]: AUC(0 to infinity) in CD1 mouse at 1 mg/kg, iv. The data set is classed as ADME, organism-based. To be noted: in vivo.
Data set [12] can be described thus: AUC(0 to infinity) in CD1 mouse at 5 mg/kg, po. The data set is classed as ADME, organism-based. The note with it: in vivo.
Data set [13] is described as follows: Half-life in CD1 mouse at 1 mg/kg, iv. Format: ADME, organism-based. The note with it: in vivo.
Data set [14] in a line: Half-life in CD1 mouse at 5 mg/kg, po. The data set is classed as ADME, organism-based. The note with it: in vivo.
The nature of data set [15]: Clearance in CD1 mouse at 1 mg/kg, iv. The note with it: CD1, mouse, in vivo. The data set is classed as ADME, organism-based.
A short description of data set [16]: Volume of distribution in CD1 mouse at 1 mg/kg, iv. The note with it: in vivo. The data set is classed as ADME, organism-based.
Data set [17] is described as follows: Drug metabolism in mouse assessed as metabolite 4-((4-(1-methyl-1H-imidazole-2-carbonyl)phenyl)amino)-4-oxo-2-(4-(trifluoromethyl)phenyl)butanoic acid cumulative half-life by LC-MS/MS analysis. Format: ADME.
Data set [18] in a line: Drug metabolism in mouse assessed as tmax of 4-((4-(1-methyl-1H-imidazole-2-carbonyl)phenyl)amino)-4-oxo-2-(4-(trifluoromethyl)phenyl)butanoic acid at 1 mg/kg, iv. The data set is classed as ADME, organism-based. To be noted: in vivo.
Data set [19] in a line: Drug metabolism in mouse assessed as tmax of 4-((4-(1-methyl-1H-imidazole-2-carbonyl)phenyl)amino)-4-oxo-2-(4-(trifluoromethyl)phenyl)butanoic acid at 5 mg/kg, po. Format: ADME, organism-based. The note with it: in vivo.
Data set [20] can be described thus: Drug metabolism in mouse assessed as Cmax of 4-((4-(1-methyl-1H-imidazole-2-carbonyl)phenyl)amino)-4-oxo-2-(4-(trifluoromethyl)phenyl)butanoic acid at 1 mg/kg, iv. To be noted: in vivo. The data set is classed as ADME, organism-based.
Data set [21] can be described thus: Drug metabolism in mouse assessed as Cmax of 4-((4-(1-methyl-1H-imidazole-2-carbonyl)phenyl)amino)-4-oxo-2-(4-(trifluoromethyl)phenyl)butanoic acid at 5 mg/kg, po. The data set is classed as ADME, organism-based. The note with it: in vivo.
Data set [22] is described as follows: Drug metabolism in mouse assessed as AUC(0 to infinity) of 4-((4-(1-methyl-1H-imidazole-2-carbonyl)phenyl)amino)-4-oxo-2-(4-(trifluoromethyl)phenyl)butanoic acid at 1 mg/kg, iv. Format: ADME, organism-based. The note with it: in vivo.
Data set [23] in a line: Drug metabolism in mouse assessed as AUC(0 to infinity) of 4-((4-(1-methyl-1H-imidazole-2-carbonyl)phenyl)amino)-4-oxo-2-(4-(trifluoromethyl)phenyl)butanoic acid at 5 mg/kg, po. The note with it: in vivo. Format: ADME, organism-based.
Data set [24] is described as follows: Drug metabolism in mouse assessed as half-life of 4-((4-(1-methyl-1H-imidazole-2-carbonyl)phenyl)amino)-4-oxo-2-(4-(trifluoromethyl)phenyl)butanoic acid at 1 mg/kg, iv. The data set is classed as ADME, organism-based. The note with it: in vivo.
The nature of data set [25]: Drug metabolism in mouse assessed as half-life of 4-((4-(1-methyl-1H-imidazole-2-carbonyl)phenyl)amino)-4-oxo-2-(4-(trifluoromethyl)phenyl)butanoic acid at 5 mg/kg, po. To be noted: in vivo. Format: ADME, organism-based.

Some results are limits rather than exact numbers.

What is called IC50 is the concentration at which inhibition is half-maximal. In general, Tmax refers to the time at which the peak concentration occurs. The term Cmax denotes the highest concentration seen after dosing. The term AUC(0-inf) denotes total exposure, with the tail of the curve extrapolated. One may read the half-life as the time in which the quantity being followed falls by half. In general, clearance refers to the volume of plasma or blood freed of the substance per unit of time. The Vd is a proportionality between amount in the body and measured concentration, not a real space. Read a high Vd as wide distribution into tissue. For orientation: AUC means the area under the concentration-time curve, a measure of exposure.

L-lactate dehydrogenase B chain, sequence (P07195 whole entry): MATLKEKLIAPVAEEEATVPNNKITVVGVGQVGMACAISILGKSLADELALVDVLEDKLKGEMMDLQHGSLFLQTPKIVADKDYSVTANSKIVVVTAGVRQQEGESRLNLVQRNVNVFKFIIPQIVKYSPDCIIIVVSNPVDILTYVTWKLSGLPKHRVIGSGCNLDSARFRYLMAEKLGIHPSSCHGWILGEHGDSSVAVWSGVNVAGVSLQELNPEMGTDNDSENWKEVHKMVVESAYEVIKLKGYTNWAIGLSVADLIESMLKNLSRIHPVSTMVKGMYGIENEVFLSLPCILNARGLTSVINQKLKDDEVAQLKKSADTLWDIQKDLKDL

Take `COC(=O)C(CC(=O)Nc1ccc(C(=O)c2nccn2C)cc1)c1ccccc1` (stereo not drawn): in [1], the IC50 was 2.49 µM.

On to `O=C(CC(C(=O)O)c1ccc(C(F)(F)F)cc1)Nc1ccc(-c2cccs2)cc1` (stereo not drawn), for which the half-inhibitory concentration (IC50) in data set [1] and in data set [2] was greater than 100 µM each time.

Regarding `COC(=O)C(CC(=O)Nc1ccc(C(=O)c2nccn2C)cc1)c1ccc(C(F)(F)F)cc1` (stereo not drawn), the F in [3] was determined as 73%. In addition, the IC50 in data set [4] is 25.6 µM; in [6] it was 23.9 µM; in [7], 12.1 µM. This compound also displayed an IC50 at 48 h in [5] of 49.5 µM. Moreover, the results for the Tmax in data set [8], in [18] and in data set [19] were 0.25 h, 0.5 h and 0.5 h, respectively. In addition, the Cmax in [9] was 1020 nM; in data set [10], 480 nM; in data set [20] it was 1010 nM; in data set [21] it was 9760 nM. Moreover, the values for the AUC(0-inf) in data set [11] and in [12] were 0.328 µM·h and 0.551 µM·h, respectively. Moreover, the half-life in [13] is 1.19 h; in [14], 1.63 h. The clearance in [15] was 110 mL/min/kg. The Vd in data set [16] is 10 L/kg. Besides, the t1/2 in data set [17] came out at 4.5 h; in [24], 2.18 h; in data set [25], 2.92 h. Moreover, the area under the curve (AUC) was found to be 4.04 µM·h in data set [22] and 25.96 µM·h in [23].

On to `COC(=O)C(CC(=O)Nc1ccc(C(=O)c2nccn2C)cc1)c1ccc(Cl)cc1` (stereo not drawn), for which the IC50 in data set [4] is 24.2 µM; in data set [6] it was greater than 50 µM; in data set [7], 23.4 µM. In addition, in data set [5], the IC50 at 48 h was found to be 26.5 µM.

On to `COc1ccc(C(CC(=O)Nc2ccc(C(=O)c3nccn3C)cc2)C(=O)O)cc1` (stereo not drawn), for which, in data set [1], the IC50 stood at 54.5 µM.

Consider `COC(=O)C(CC(=O)Nc1ccc(Cl)nn1)c1ccc(C(F)(F)F)cc1` (stereo not drawn), for which the IC50 in [1] and in data set [2] was greater than 100 µM throughout.

For `O=C(O)CC(NC(=O)Cc1ccc(C(F)(F)F)cc1)c1cccc(Cl)c1` (stereo not drawn), the IC50 in data set [1] and in [2] was greater than 100 µM in each case.

Turning to `COC(=O)C(CC(=O)Nc1ccc(C(=O)c2ccccc2)cc1)c1ccc(C(F)(F)F)cc1` (stereo not drawn), the IC50 in data set [1] was determined as 15.7 µM.

As to `Cn1ccnc1C(=O)c1ccc(NC(=O)CC(C(=O)O)c2csc(-c3ccccc3)n2)cc1` (stereo not drawn), the IC50 in data set [1] came to 29.9 µM.

For `O=C(CC(C(=O)O)c1ccc(C(F)(F)F)cc1)Nc1ccc(C(=O)c2ccccc2)cc1` (stereo not drawn), the IC50 in [1] was found to be 79.3 µM.

For the origin of these results see ChEMBL document CHEMBL5584248, “Synthesis and biological characterization of an orally bioavailable lactate dehydrogenase-A inhibitor against pancreatic cancer” (Eur J Med Chem, 2024).
